The text below walks through data of patent publication US20250270203A1, “NICOTINIC ACETYLCHOLINE RECEPTOR LIGANDS” (Philip Morris Products S.A., priority 2022, published 2025).

One assay deals with human α7 nAChR (Homo sapiens (Human), UniProt P36544). The experiment in a line: biochemical. The class given is binding. The settings on record: for nAChR subtype preference / selectivity: in words, from Ki at α7, α4β2, α3β4.
In the next assay the target is α4β2 nAChR (Homo sapiens (Human), UniProt P17787+P43681). The experiment in a line: nAChR binding affinity, α4β2 subtype.
The next assay deals with α3β4 nAChR (Homo sapiens (Human), UniProt P30926+P32297). Kind of assay: nAChR binding affinity, α3β4 subtype. The following applies: Table 2.
The subject of assay [1] is citric acid-induced cough in guinea pigs. The experiment in a line: Citric acid-induced cough in guinea pigs, dry powder insufflation, nebulisation, oral and intraperitoneal administration (Example 28). The assay is classed as in vivo, guinea pig. On the procedure: The mean concentration of citric acid was 1156.0±111.8 μg/L for both routes.
Regarding oral administration, the duration between compound administration and start of citric acid challenge was 30 minutes. The data was compared to atmospheric air (control).
Regarding intraperitoneal administration, compounds were administered approximately 10-15 mins before the cough challenge (citric acid inhalation challenge). Test compounds were dosed at between 1-30 mg/kg (as described herein for each experiment) while the positive control (codeine) was dosed at 30 mg/kg, in each case using a dosing volume of 10 ml/kg, by a single intraperitoneal injection.

Assay [2] shares this test system. Kind of assay: Citric acid-induced cough in guinea pigs, intraperitoneal injection (Example 27).
Method: As depicted in FIG. 1B and FIG. 1C, cough induction is conducted by placing guinea pigs into a whole body plethysmograph (WBP) equipped with a Aeroneb™ vibrating mesh nebulizer, and including pressure transducers and detection equipment (EMKA technologies). A primary microphone is supplied (EMKA Technologies) for acoustic confirmation of cough frequency in the form of a digital trace using the EMKA software.
A secondary microphone (T1 True Wireless Earphone, QCY®) also is placed in the chamber and connected to a smartphone via Bluetooth to enable the observers to hear the audible sounds during the test. A bias flow rate of 2 L/min is used to continuously draw either atmospheric air (during the fresh air period) or aerosolized citric acid from the nebulizer into the WBP and expel it out through an exhaust pipe. Chamber pressure in the WBP is set to be between −10 to −30 Pa relative to ambient pressure.
Prior to the citric acid challenge, the guinea pigs are administered (intraperitoneal injection) with vehicle control, positive control or test compound (where applicable) with different dosage (Table 3) and placed individually into the WBP for at least 5 minutes in order to habituate.
The procedure was as follows: Injection→guinea pig in box having citric acid for 10 mins (counting the cough)→box then fill with air for 5 mins (counting the cough)→guinea pig moved to recovery cage.
Appropriate concentration of citric acid is used to generate aerosol and deliver to WBP for 10 minutes with constant recording of pressure measurements. The mean concentration of citric acid was 1283.1±137.2 μg/L. Upon completion of citric acid challenge, the guinea pig is allowed to recover and continue recording of cough counts for another 5 minutes. Subsequently, the guinea pigs are closely monitored in recovery cage for full recovery from the challenge and that no adverse events were present before returning the animals to its home cage. Cough counts (CCnt) are recorded over a period of at least 10 mins, starting from citric acid stimulation and cough incubation period (CIP) are defined as the time it takes to cough for the first time after citric acid stimulation.
The data were analysed using Oneway ANOVA (* p<0.05, ** p<0.01, *** p<0.001, **** p<0.0001) when compared to saline control, and each column represents Mean±SEM.
Where [3] appears, read: Table 1, [125I] α-Bungarotoxin, Cheng-Prusoff, read-out: α7 Ki.

SMILES strings stand for the structures. Read-outs that look alike come from different tables or passages of the source.

human α7 nAChR, sequence (P36544 23-502 limits assumed): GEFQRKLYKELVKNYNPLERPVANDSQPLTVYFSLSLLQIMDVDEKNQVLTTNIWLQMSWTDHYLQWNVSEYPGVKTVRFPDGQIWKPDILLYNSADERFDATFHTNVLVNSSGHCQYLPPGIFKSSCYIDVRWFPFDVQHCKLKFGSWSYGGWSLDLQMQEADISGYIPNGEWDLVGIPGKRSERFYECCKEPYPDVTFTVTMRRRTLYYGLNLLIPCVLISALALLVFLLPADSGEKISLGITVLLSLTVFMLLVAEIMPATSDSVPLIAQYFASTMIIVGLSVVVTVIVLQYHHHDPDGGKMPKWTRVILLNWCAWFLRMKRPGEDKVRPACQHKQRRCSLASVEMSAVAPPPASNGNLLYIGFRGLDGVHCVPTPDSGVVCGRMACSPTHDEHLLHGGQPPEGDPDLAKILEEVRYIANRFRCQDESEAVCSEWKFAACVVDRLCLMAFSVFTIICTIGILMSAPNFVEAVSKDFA
α4β2 nAChR, sequence (P43681 29-627): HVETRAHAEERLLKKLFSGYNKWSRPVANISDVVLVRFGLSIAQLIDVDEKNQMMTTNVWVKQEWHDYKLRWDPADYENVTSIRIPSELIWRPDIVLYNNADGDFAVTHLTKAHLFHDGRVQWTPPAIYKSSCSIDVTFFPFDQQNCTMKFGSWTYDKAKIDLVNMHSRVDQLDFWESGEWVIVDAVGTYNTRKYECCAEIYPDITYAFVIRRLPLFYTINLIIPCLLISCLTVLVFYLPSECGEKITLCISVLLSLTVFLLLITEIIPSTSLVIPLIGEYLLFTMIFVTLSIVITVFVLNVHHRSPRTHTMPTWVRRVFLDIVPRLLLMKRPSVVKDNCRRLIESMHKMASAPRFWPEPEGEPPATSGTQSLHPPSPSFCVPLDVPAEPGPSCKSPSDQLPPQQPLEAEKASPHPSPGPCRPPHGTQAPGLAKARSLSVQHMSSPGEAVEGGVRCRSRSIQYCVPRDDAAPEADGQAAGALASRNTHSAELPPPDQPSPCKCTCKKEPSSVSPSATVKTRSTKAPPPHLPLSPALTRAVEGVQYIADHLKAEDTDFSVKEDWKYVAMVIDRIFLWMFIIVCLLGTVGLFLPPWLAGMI
α4β2 nAChR, sequence (P17787 26-502): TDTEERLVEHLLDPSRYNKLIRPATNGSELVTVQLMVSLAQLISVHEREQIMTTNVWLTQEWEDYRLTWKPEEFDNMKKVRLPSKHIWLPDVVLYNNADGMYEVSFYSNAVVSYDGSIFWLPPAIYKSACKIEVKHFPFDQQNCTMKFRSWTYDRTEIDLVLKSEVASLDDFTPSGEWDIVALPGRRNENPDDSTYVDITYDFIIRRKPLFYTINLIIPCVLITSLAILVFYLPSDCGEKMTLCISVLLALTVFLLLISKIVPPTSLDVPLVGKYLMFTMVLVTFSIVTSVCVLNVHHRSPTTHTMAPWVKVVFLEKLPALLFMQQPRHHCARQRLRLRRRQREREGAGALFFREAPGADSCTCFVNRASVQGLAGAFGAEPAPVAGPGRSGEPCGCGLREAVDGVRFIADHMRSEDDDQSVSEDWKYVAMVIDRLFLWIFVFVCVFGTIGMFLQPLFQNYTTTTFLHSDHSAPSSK
α3β4 nAChR, sequence (P32297 32-505): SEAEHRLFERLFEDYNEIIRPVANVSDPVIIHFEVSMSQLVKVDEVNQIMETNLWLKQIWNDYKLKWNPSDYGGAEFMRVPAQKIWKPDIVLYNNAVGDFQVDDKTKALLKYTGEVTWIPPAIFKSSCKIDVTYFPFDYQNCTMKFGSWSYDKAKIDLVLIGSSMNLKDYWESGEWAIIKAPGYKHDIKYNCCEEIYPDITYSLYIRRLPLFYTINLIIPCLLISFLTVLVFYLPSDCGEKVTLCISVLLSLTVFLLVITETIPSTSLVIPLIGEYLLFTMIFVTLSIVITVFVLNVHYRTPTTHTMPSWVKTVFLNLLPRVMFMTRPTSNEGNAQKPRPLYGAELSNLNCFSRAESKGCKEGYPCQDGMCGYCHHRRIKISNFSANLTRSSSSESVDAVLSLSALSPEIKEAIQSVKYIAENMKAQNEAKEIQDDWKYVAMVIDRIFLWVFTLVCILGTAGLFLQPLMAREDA
α3β4 nAChR, sequence (P30926 22-498): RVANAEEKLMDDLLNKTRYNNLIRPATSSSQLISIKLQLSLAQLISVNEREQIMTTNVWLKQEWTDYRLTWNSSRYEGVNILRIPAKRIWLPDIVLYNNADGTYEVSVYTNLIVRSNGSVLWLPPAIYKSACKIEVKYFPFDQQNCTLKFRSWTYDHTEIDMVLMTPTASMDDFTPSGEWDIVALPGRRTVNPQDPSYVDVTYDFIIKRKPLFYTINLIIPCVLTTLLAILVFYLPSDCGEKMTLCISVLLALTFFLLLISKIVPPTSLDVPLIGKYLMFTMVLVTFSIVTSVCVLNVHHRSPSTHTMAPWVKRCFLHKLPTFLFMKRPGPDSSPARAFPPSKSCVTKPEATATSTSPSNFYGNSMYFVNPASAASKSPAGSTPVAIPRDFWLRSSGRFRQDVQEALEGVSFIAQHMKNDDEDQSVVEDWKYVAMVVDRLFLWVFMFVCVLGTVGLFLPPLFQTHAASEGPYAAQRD

In general, Ki refers to a measure of affinity in units of concentration, obtained from inhibition or displacement. In the case of `c1cncc(C[C@@H]2[C@@H](Oc3cnc(-c4ccc5[nH]ccc5c4)cn3)C3CCN2CC3)c1` (racemic) [Compound 9, trans-5-[5-[2-(3-Pyridylmethyl)quinuclidin-3-yl]oxypyrazin-2-yl]-1H-indole], the Ki at human α7 nAChR is 240 nM.

In the case of `c1cncc(C[C@@H]2[C@@H](Oc3ccc(-c4ccc5[nH]ccc5c4)nn3)C3CCN2CC3)c1` (racemic) [Compound 11, trans-5-[6-[2-(3-Pyridylmethyl)quinuclidin-3-yl]oxypyridazin-3-yl]-1H-indole], the figures for the Ki at human α7 nAChR and at α4β2 nAChR were 1.4 nM and 73 nM, respectively.

Take `c1cncc(C[C@@H]2[C@@H](Oc3nnc(-c4ccc5[nH]ccc5c4)s3)C3CCN2CC3)c1` (racemic) [Compound 16, trans-2-(1H-Indol-5-yl)-5-[2-(3-pyridylmethyl)quinuclidin-3-yl]oxy-1,3,4-thiadiazole]: the Ki on α4β2 nAChR (Table 2, read-out: Ki α4β2) was found to be 220 nM; on α3β4 nAChR, 440 nM.

Take `c1ccc(-c2nnc(O[C@H]3C4CCN(CC4)[C@@H]3Cc3cccnc3)s2)cc1` (racemic) [Compound 20, trans-2-Phenyl-5-[2-(3-pyridylmethyl)quinuclidin-3-yl]oxy-1,3,4-thiadiazole]: the Ki on human α7 nAChR turned out to be 320 nM.

`c1cncc(C[C@@H]2[C@H](Oc3ccc(-c4ccc5[nH]ccc5c4)nn3)C3CCN2CC3)c1` (relative stereo) [Compound 7, cis-5-[6-[2-(3-Pyridylmethyl)quinuclidin-3-yl]oxypyridazin-3-yl]-1H-indole]: on human α7 nAChR, the inhibition constant (Ki) is 59 nM and the “nAChR subtype preference / selectivity” value is “preferably binds to the α4β2 nAChR”. This molecule also came in with an inhibition constant (Ki) at α3β4 nAChR of 200 nM.

For the molecule `c1cncc(C[C@@H]2[C@@H](Oc3cnc(-c4ccc5[nH]ccc5c4)cn3)C3CCN2CC3)c1` (relative stereo) [Compound 9, trans-5-[5-[2-(3-Pyridylmethyl)quinuclidin-3-yl]oxypyrazin-2-yl]-1H-indole], the Ki at α4β2 nAChR (Table 2, read-out: Ki α4β2) is 230 nM; on α3β4 nAChR, 400 nM.

Molecule `c1cncc(C[C@@H]2[C@@H](Oc3ccc4ccccc4n3)C3CCN2CC3)c1` (relative stereo) [Compound 18, trans-2-[2-(3-Pyridylmethyl)quinuclidin-3-yl]oxyquinoline] gave a Ki at human α7 nAChR of 2920 nM.

Consider `c1ccc(-c2ccc(O[C@H]3C4CCN(CC4)[C@@H]3Cc3cccnc3)nn2)cc1` (relative stereo) [Compound 19, trans-3-(6-Phenylpyridazin-3-yl)oxy-2-(3-pyridylmethyl) quinuclidine], for which the Ki at human α7 nAChR came to 100 nM.

`c1ccc(-c2nnc(O[C@H]3C4CCN(CC4)[C@@H]3Cc3cccnc3)s2)cc1` (relative stereo) [Compound 20, trans-2-Phenyl-5-[2-(3-pyridylmethyl)quinuclidin-3-yl]oxy-1,3,4-thiadiazole] registered a Ki at human α7 nAChR of 320 nM.

With `c1cncc(C[C@@H]2[C@@H](Oc3ccc(-c4ccc5[nH]ccc5c4)nn3)C3CCN2CC3)c1` [2R,3S-11, (2R,3S)-5-[6-[2-(3-Pyridylmethyl)quinuclidin-3-yl]oxypyridazin-3-yl]-1H-indole], the Ki on human α7 nAChR (Table 2, read-out: Ki α7) was found to be 34 nM; on α4β2 nAChR (Table 2, read-out: Ki α4β2), 730 nM; at α3β4 nAChR, 1210 nM.

As to `c1cncc(C[C@H]2[C@H](Oc3ccc(-c4ccc5[nH]ccc5c4)nn3)C3CCN2CC3)c1` [2S,3R-11, (2S,3R)-5-[6-[2-(3-Pyridylmethyl)quinuclidin-3-yl]oxypyridazin-3-yl]-1H-indole], the Ki at human α7 nAChR (Table 2, read-out: Ki α7) was 1 nM; at α4β2 nAChR (Table 2, read-out: Ki α4β2) it was 77 nM; at α3β4 nAChR it was 780 nM. Further, the “nAChR subtype preference / selectivity” value at human α7 nAChR was “optimal and selective interaction with α7 nAChR”.

As to `c1cncc(C[C@@H]2[C@@H](Oc3ccc(-c4ccc5[nH]ccc5c4)cn3)C3CCN2CC3)c1` [Compound 5, trans-5-[6-[2-(3-Pyridylmethyl)quinuclidin-3-yl]oxy-3-pyridyl]-1H-indole], the Ki at human α7 nAChR is 58 nM.

At human α7 nAChR, `c1cncc(C[C@@H]2[C@@H](Oc3ccc(-c4ccc5[nH]ccc5c4)nn3)C3CCN2CC3)c1` [Compound 11, trans-5-[6-[2-(3-Pyridylmethyl)quinuclidin-3-yl]oxypyridazin-3-yl]-1H-indole] came in with a Ki of 1 nM.

As to `Nc1nc2ccc(-c3ccc(OC4C5CCN(CC5)C4Cc4cccnc4)nn3)cc2s1` (stereo not drawn) [Compound 12, trans-6-[6-[2-(3-Pyridylmethyl)quinuclidin-3-yl]oxypyridazin-3-yl]-1,3-benzothiazol-2-amine], the Ki at human α7 nAChR (setting [3]) was found to be 19 nM; at human α7 nAChR (Table 2, read-out: Ki α7), 18.8 nM; at α4β2 nAChR (Table 2, read-out: Ki α4β2) it was 50 nM; on α3β4 nAChR, 1080 nM.

Take `c1cncc(C[C@@H]2[C@@H](Oc3nnc(-c4ccc5[nH]ccc5c4)s3)C3CCN2CC3)c1` [Compound 16, trans-2-(1H-Indol-5-yl)-5-[2-(3-pyridylmethyl)quinuclidin-3-yl]oxy-1,3,4-thiadiazole]: the inhibition constant Ki at human α7 nAChR (setting [3]) amounted to 11 nM. Besides, the “citric acid-induced cough counts compared with air control” value is listed as “significantly reduced” in assay [1] (dry powder insufflated, 1 mg/kg, p=0.0004); “significantly reduced” in assay [1] (dry powder insufflated, 2 mg/kg, p=0.0042); “significantly reduced” in assay [1] (nebulised, 0.4 mg/kg, 58 min exposure, p=0.0023); “significantly reduced” in assay [1] (orally administered, 9.5 mg/kg, p<0.05). For the same molecule, the “cough frequency compared to negative control (saline)” value in assay [1] (prophylactic intraperitoneal treatment at 1, 3 and 9.5 mg/kg, FIG. 8) is listed as “suppression of cough frequency”. Further, the “number of coughs (citric acid-induced cough counts)” value in assay [2] (i.p. 1 mg/kg, p<0.0001 vs saline control (17 coughs)) came out at 5; in assay [2] (i.p. 3 mg/kg, p<0.001 vs saline control (17 coughs)) it was 5; in assay [2] (i.p. 9.5 mg/kg, p<0.01 vs saline control (17 coughs)), 7. Also, the cough incubation period in assay [2] (i.p. 1 mg/kg, p<0.001 vs saline control (206 sec)) was determined as 548 s; in assay [2] (i.p. 3 mg/kg, p<0.01 vs saline control (206 sec)) it was 455 s; in assay [2] (i.p. 9.5 mg/kg, p<0.05 vs saline control (206 sec)), 489 s.
